Patent publication US11980188B2, “Spiro cyclohexanedione derivates as herbicides” (SYNGENTA PARTICIPATIONS AG, priority 2018, dated 2024)

Assays:
Avena fatua (AVEFA) = experiment: Glasshouse herbicide test, pre- and post-emergence, percentage damage; format: in vivo; conditions: 250 g/h, evaluated after 13 days, percentage damage on five point scale; for AVEFA POST: post-emergence; for AVEFA PRE: pre-emergence
Procedure, shortened: (§1)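 A single spray at 250 g/h was given either to soil one day after sowing or to seedlings after eight days' growth. Vehicle was acetone/water (50:50) with 0.5% Tween 20. Thirteen days on, damage was rated in 20% bands, 1 (0-19%) to 5 (80-100%).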

[1] = system: Alopecurus myosuroides (ALOMY); experiment: as above; format: in vivo; conditions: 250 g/h, evaluated after 13 days, percentage damage on five point scale; for ALOMY POST: post-emergence; for ALOMY PRE: pre-emergence
Procedure, shortened: as §1

Lolium perenne (LOLPE) = experiment: as above; format: in vivo; conditions: 250 g/h, evaluated after 13 days, percentage damage on five point scale; for LOLPE POST: post-emergence; for LOLPE PRE: pre-emergence
Procedure, shortened: as §1

[2] = system: Echinochloa crus-galli (ECHCG); experiment: as above; format: in vivo; conditions: 250 g/h, evaluated after 13 days, percentage damage on five point scale; for ECHCG POST: post-emergence; for ECHCG PRE: pre-emergence
Procedure, shortened: as §1

Setaria faberi (SETFA) = experiment: as above; format: in vivo; conditions: 250 g/h, evaluated after 13 days, percentage damage on five point scale; for SETFA POST: post-emergence; for SETFA PRE: pre-emergence
Procedure, shortened: as §1

[3] = system: weed species ALOMY, AVEFA & LOLPE; experiment: Post-emergence comparison with comparator C1, overall conclusion; format: in vivo; conditions: 63 and 16 g/ha, Table B2
Experimental: (§2) Seeds of a variety of test species are sown in standard soil in pots (Lolium perenne (LOLPE), Setaria faberi (SETFA), Alopecurus myosuroides (ALOMY), Echinochloa crus-galli (ECHCG), Avena fatua (AVEFA)). After cultivation for one day (pre-emergence) or after 8 days cultivation (post-emergence) under controlled conditions in a glasshouse (at 24/16° C., day/night; 14 hours light; 65% humidity), the plants are sprayed with an aqueous spray solution derived from the formulation of the technical active ingredient in acetone/water (50:50) solution containing 0.5% Tween 20 (polyoxyethelyene sorbitan monolaurate, CAS RN 9005-64-5). Compounds are applied at […]. The test plants are then grown in a glasshouse under controlled conditions in a glasshouse (at 24/16° C., day/night; 14 hours light; 65% humidity) and watered twice daily. After 13 days for pre and post-emergence, the test is evaluated for the percentage damage caused to the plant. The biological activities are shown in the following table on a five point scale (5=80-100%; 4=60-79%; 3=40-59%; 2=20-39%; 1=0-19%).
(§3) Using procedures outlines above, weed species ALOMY, AVEFA & LOLPE are treated post-emergence with compound A4 of the present invention or comparator compound C1 (Compound T-26 from WO2008/110308) at the application rates indicated. The test is evaluated for the percentage damage caused to the plant.

ALOMY = experiment: Post-emergence comparison with comparator C1 at indicated application rates; format: in vivo, Alopecurus myosuroides
Experimental: as §2, §3

AVEFA = experiment: as above; format: in vivo, Avena fatua
Experimental: as §2, §3

LOLPE = experiment: as above; format: in vivo, Lolium perenne
Experimental: as §2, §3

| SMILES | AVEFA POST (Avena fatua (AVEFA)) | AVEFA PRE (Avena fatua (AVEFA)) | ALOMY POST [1] | ALOMY PRE [1] | LOLPE POST (Lolium perenne (LOLPE)) | LOLPE PRE (Lolium perenne (LOLPE)) | ECHCG POST [2] | ECHCG PRE [2] | SETFA POST (Setaria faberi (SETFA)) | SETFA PRE (Setaria faberi (SETFA)) | weed control vis-à-vis prior art compound C1 [3] | ALOMY percentage damage (ALOMY; rate 16 g/ha) | ALOMY percentage damage (ALOMY; rate 63 g/ha) | AVEFA percentage damage (AVEFA; rate 16 g/ha) | AVEFA percentage damage (AVEFA; rate 63 g/ha) | LOLPE percentage damage (LOLPE; rate 16 g/ha) | LOLPE percentage damage (LOLPE; rate 63 g/ha) |
| --- | --- | --- | --- | --- | --- | --- | --- | --- | --- | --- | --- | --- | --- | --- | --- | --- | --- |
| COc1cc(-c2ccc(F)cc2)cc(OC)c1C1C(=O)CC2(CCN(OC)CC2)CC1=O [Compound A7] | 5 (5=80-100%) | 5 (5=80-100%) | 5 (5=80-100%) | 5 (5=80-100%) | 5 (5=80-100%) | 5 (5=80-100%) | 5 (5=80-100%) | 5 (5=80-100%) | 5 (5=80-100%) | 5 (5=80-100%) | improved weed control | 80% | 100% | 100% | 100% | 90% | 100% |
| CON1CCC2(CC1)CC(=O)C(c1c(C)cc(C)cc1C)C(=O)C2 [Compound A4] | 5 (5=80-100%) | 5 (5=80-100%) | 5 (5=80-100%) | 5 (5=80-100%) | 5 (5=80-100%) | 5 (5=80-100%) | 5 (5=80-100%) | 5 (5=80-100%) | 5 (5=80-100%) | 5 (5=80-100%) | improved weed control | 40% | 90% | 40% | 90% | 70% | 90% |
| Cc1cc(C)c(C2C(=O)CC3(CCOCC3)CC2=O)c(C)c1 [Compound C1, reference compound] | – | – | – | – | – | – | – | – | – | – | – | 20% | 80% | 20% | 70% | 30% | 60% |
| CC(=O)N1CCC2(CC1)CC(=O)C(c1c(C)cc(-c3ncc(F)cn3)cc1C)C(=O)C2 [Compound A13, 3-acetyl-9-[4-(5-fluoropyrimidin-2-yl)-2,6-dimethyl-phenyl]-3-azaspiro[5.5]undecane-8,10-dione] | 5 (5=80-100%) | 5 (5=80-100%) | 5 (5=80-100%) | 5 (5=80-100%) | 5 (5=80-100%) | 5 (5=80-100%) | – | 5 (5=80-100%) | 5 (5=80-100%) | 5 (5=80-100%) | improved weed control | 90% | 100% | 90% | 100% | 70% | 90% |
